Results taken from US12594307B2, “Compositions and methods of using inducible signaling for tunable dynamics in microbial communities” (priority 2019, dated 2026).
“Also recorded” adds a separate entry of the source.

Key:
iQS strain = iQS strain fluorescence response to pCA, microwell plate reader; format: cell-based, Escherichia Coli; details: FIG. 1D
Experimental: To design an exemplary iQS system, the two-step pathway which converts pCA into p-coumaroyl-HSL (pC-HSL) was genetically reconstructed through the production of the intermediate molecule p-coumaroyl-CoA (FIG. 1A). The first conversion is catalyzed by the p-coumaric acid-CoA ligase encoded by the 4CL2nt gene from the plant Nicotiana tabacum while the second step is catalyzed by the RpaI synthase. Additionally, superfolder green fluorescent protein (sfGFP) was added to be able to monitor the inducible dynamics. […] Escherichia Coli was chosen as the host chassis for the double plasmid circuit. The methods described in Example 1 are also applicable to Examples 2, 3, and 4.
(§1) The iSLC and SLC strains were both cultured in lysogeny broth (LB) media with 50 μg mL^−1 kanamycin, 34 μg mL^−1 chloramphenicol and 0.2% glucose for strains containing ColE1 origin and p15A origin plasmids in a 37° C. shaking incubator. Plasmid pTD103 RpaR-RpaI-LAA-sfGFP^21, ptD103-CFP were constructed by as described in previous studies (see, e.g., FIG. 11). Both plasmids pAM014 and pAM021 were obtained by inserting the 4CL2nt gene under the constitutive promoter J23106 from the Anderson promoter library. The 4CL2nt gene and the promoter were synthesized with overlapping PCR of long oligonucleotides (IDT). All plasmids were constructed by Gibson assembly followed by transformation into DH5α (Thermofisher) chemically competent E. coli. All plasmids were verified by Sanger sequencing before transformation into E. coli strain MG1655.
(§2) For plate reader experiments, the appropriate strains were seeded from a −80° C. glycerol stock into 3 ml LB with 0.2% glucose and appropriate antibiotics and incubated in a 37° C. shaking incubator. The following day, 2 μL of overnight culture were added to 200 μL fresh media containing appropriate antibiotics in a standard Falcon tissue culture 96-well flat bottom plate. Cells were incubated at 37° C. shaking in a Tecan Infinite M200 Pro. Cells were grown for about 12 hours. The optical density at 600 nm absorbance was measured every 10 minutes.

wild type E. Coli strain = assay: wild type E. Coli growth curves in a range of p-coumaric acid concentrations (plate reader); format: cell-based; details: within the characterized concentration range; FIG. 1E
Experimental: as §2

iSLC strain [1] = assay: iSLC strain population dynamics in microfluidic inducer gradient device; format: cell-based, E. coli
Experimental: as §1
The microscopy and microfluidics techniques used are similar to those previously reported. The microfluidic devices were constructed from PDMS (polydimethylsiloxane), which was molded and baked on a silicon wafer with micronscale features formed by crosslinked photoresist. Once the PDMS hardened, it was peeled off, and individual devices were cut out. In order to connect fluid lines to the device, holes where punched in correspondence of the inlets and outlets of the device. Afterwards, the devices were bonded onto glass slides using plasma activation. […]

iSLC strain [2] = assay: iSLC kill switch induction in microfluidic traps; format: cell-based, E. coli; details: induction with 500 nM pCA after saturation of traps; 406 traps
From the text: (§3) The microscopy and microfluidics techniques used are similar to those previously reported. The microfluidic devices were constructed from PDMS (polydimethylsiloxane), which was molded and baked on a silicon wafer with micronscale features formed by crosslinked photoresist. Once the PDMS hardened, it was peeled off, and individual devices were cut out. In order to connect fluid lines to the device, holes where punched in correspondence of the inlets and outlets of the device. Afterwards, the devices were bonded onto glass slides using plasma activation. Before each experiment, the devices were left for 30 minutes in a vacuum chamber. Meanwhile, 1 mL of overnight cell culture was spun down by centrifugation and re-suspended in 10 μL of fresh media with appropriate antibiotics. […] At 4× magnification fluorescence exposure times were 2 seconds at 30% intensity for both gfp and cfp while at 10× magnification they were 200 us at 30% intensity for both GFP and CFP. […]
(§4) Fluorescence intensity profiles were obtained by analyzing frames from the fluorescent channels. The mean fluorescence values were calculated by drawing a rectangle surrounding each trap individually and extracting the z-axis profile on ImageJ. Fluorescence values shown in FIG. 2 were normalized by dividing all data by a constant factor. […]

iSLC strain [3] = assay: cells survival assay (CFU count) of iSLC strain in liquid culture; format: cell-based, E. coli; details: 3 mL culture tubes, eight hours; 300 nM, 500 nM, 1 μM; independent of inducer concentration; FIG. 3D
Experimental: Cell viability assays to test the efficacy of iQS as a kill switch were done by measuring colony forming units (CFUs), following a protocol found in the literature. Cells were grown under survival conditions in LB with 0.2% glucose which inhibits the LuxI promoter thanks to the presence of a binding site for the CAP-CAMP activating complex. Following overnight growth, they were transferred into four cultures of fresh LB medium with 0.2% glucose, 300 nM p-coumaric acid, 500 nM p-coumaric acid and 1 μM p-coumaric acid, respectively. Samples were collected every 2 hours and serially diluted in PBS over a 7-log range and spotted (2 μL) onto LB agar plates with 0.2% glucose. The equations used arc: CFU/ml=(number of colonies)×(dilution factor)/0.002 mL, survival ratio (log 10)=log (CFU/ml with glucose)/(CFU/ml with p-coumaric acid).
Experiments were performed to investigate whether inducer concentrations could be modulated during culture to show the culture can switch between states of constant growth (circuit quiescence), synchronized oscillations in population density (cyclic cargo release) and inducible population death (kill switch). To confirm this principle, experiments were performed to test the ability to drive the population dynamics from state one (population growth) to state three (population death) through pCA induction (FIG. 3A). […]

[4] = tested on: iSLC and SLC strains co-culture; assay: co-culture of iSLC and SLC strains under a gradient of inducer concentrations (microfluidics); format: cell-based, E. coli
From the text: as §3, with “antibiotics. After taking the device out of the vacuum chamber, a single droplet of resuspended cells was positioned in correspondence of the outlet opening. Similarly, droplets of sterile fresh media were placed in correspondence of the inlets openings. In all cases, 0.075% Tween20 was added to the medium to prevent cells from sticking to the PDMS walls. After all chip features were wetted, the fluids lines were plugged in and the height of the inlet was raised 10 to 40 cm above the device. The outlet syringe was instead placed at the same height of the device. For co-culturing experiments in FIG. 4, cells were cultured individually overnight and eventually spun down and re-suspended together (1:1 ratio) allowing for a single droplet to be loaded on the device.” for “antibiotics.”
as §4

lux QS system = assay: crosstalk of p-coumaric acid with the lux QS system, growth curves (plate reader); format: cell-based, E. coli; details: range of pCA concentrations; FIG. 9
Experimental: as §2
Experiments were performed to investigate the orthogonal properties of the iQS circuit by co-culturing the iSLC with a non-inducible SLC strain based on the lux QS system, one of the most commonly used and well understood QS systems in synthetic biology (FIG. 4A). […] Next, a previously described microfluidic chip was used (FIG. 2D and FIG. 7) to co-culture the iSLC and SLC strains (starting at 1:1 ratio) under a gradient of inducer concentrations. […] Without inducer, the quiescent iSLC strain was able to displace the SLC strain due to an advantage in population growth rate. At intermediate concentrations (15 nM), stable co-culture of both strains were maintained with independently sustained oscillations for more than 40 hours.

Q: For `O=C(O)/C=C/c1ccc(O)cc1` [pCA, p-coumaric acid], which “iQS circuit behavior at intermediate inducer levels” value (iQS strain; 1 nM and 10 nM pCA) is on record?
A: Its value is “population-dependent switch-like behavior”.

Q: And the “iQS circuit behavior at high inducer concentrations” value (iQS strain; 100 nM to 10 μM pCA)?
A: The value was “linear relationship between fluorescence expression and population density”.

Q: What about the “optical density threshold of steep increase in fluorescence signal” value (iQS strain; intermediate levels (1 nM and 10 nM) pCA) of the same compound?
A: Its value is “around 0.3”.

Q: And the “toxicity to wild type E. Coli (growth curves)” value (wild type E. Coli strain)?
A: The value was “not toxic”.

Q: What about the “fraction of all microfluidics traps able to survive” value (iSLC strain [1]; high pCA concentrations 110 nM to 1 μM, universal cell lysis) of the same compound?
A: The value was < 3%.

Q: And the “average period of sustained synchronized oscillations” value (iSLC strain [1]; intermediate inducer concentration 15 nM)?
A: The value was “approximately 200 minutes”.

Q: What about the “microfluidic traps with cell death after synchronized lysis event” value (iSLC strain [2]) of the same compound?
A: The value was “more than 97%”.

Q: And the “cell survival (CFU)” value (iSLC strain [3])?
A: Its value is “several order of magnitude decrease”.

Q: What about the “duration of stable co-culture with independently sustained oscillations” value ([4]; 15 nM, starting 1:1 ratio) of the same compound?
A: The value was “more than 40 hours”.

Q: What about the “co-culture outcome at high pCA concentration” value ([4]; 110 nM, starting 1:1 ratio) of the same compound?
A: Its value is “death of all iSLC cells”.

Q: And the “co-culture outcome at inducer values higher than 340 nM” value ([4]; higher than 340 nM, FIG. 10)?
A: Its value is “iSLC death and SLC takeover”.

Q: And the “crosstalk with lux QS system / growth curves” value (lux QS system)?
A: The value was “absence of crosstalk; also recorded: growth curves are unaffected”.
